Results from the NIST ThermoML archive (doi:10.1021/je900596d).

Details: Vibrating tube method

FC(F)=C(F)C(F)(F)F [hexafluoropropene]
Details | mass density [kg/m3]
353.12 K, 2589.9 kPa, Fluid (supercritical or subcritical phases) | 239.58
353.12 K, 2605.1 kPa, Fluid (supercritical or subcritical phases) | 243.48
353.12 K, 2619.7 kPa, Fluid (supercritical or subcritical phases) | 247.37
353.12 K, 2635.2 kPa, Fluid (supercritical or subcritical phases) | 251.52
353.12 K, 2649.7 kPa, Fluid (supercritical or subcritical phases) | 255.58
353.12 K, 2670.4 kPa, Fluid (supercritical or subcritical phases) | 261.98
353.12 K, 2690 kPa, Fluid (supercritical or subcritical phases) | 268.46
353.12 K, 2702.3 kPa, Fluid (supercritical or subcritical phases) | 272.91
353.12 K, 2710.7 kPa, Fluid (supercritical or subcritical phases) | 275.88
353.12 K, 2718.3 kPa, Fluid (supercritical or subcritical phases) | 278.85
353.12 K, 2725 kPa, Fluid (supercritical or subcritical phases) | 281.55
353.12 K, 2731.2 kPa, Fluid (supercritical or subcritical phases) | 284.3
353.12 K, 2737.4 kPa, Fluid (supercritical or subcritical phases) | 286.74
353.12 K, 2744.8 kPa, Fluid (supercritical or subcritical phases) | 290.14
353.12 K, 2751.1 kPa, Fluid (supercritical or subcritical phases) | 293.08
353.12 K, 2757.6 kPa, Fluid (supercritical or subcritical phases) | 296.25
353.12 K, 2764.5 kPa, Fluid (supercritical or subcritical phases) | 299.88
353.12 K, 2771.7 kPa, Fluid (supercritical or subcritical phases) | 303.81
353.13 K, 2798.4 kPa, Liquid | 887.06
353.13 K, 2805.3 kPa, Liquid | 888.96
353.13 K, 2812.6 kPa, Liquid | 890.6
353.13 K, 2818.9 kPa, Liquid | 891.84
353.13 K, 2825.7 kPa, Liquid | 893.67
353.13 K, 2832.6 kPa, Liquid | 894.71
353.13 K, 2839.4 kPa, Liquid | 896.74
353.13 K, 2846 kPa, Liquid | 898.09
353.13 K, 2852.6 kPa, Liquid | 899.46
353.13 K, 2859.8 kPa, Liquid | 900.81
353.13 K, 2866.7 kPa, Liquid | 902.11
353.13 K, 2873.8 kPa, Liquid | 903.63
353.13 K, 2881 kPa, Liquid | 904.67
353.13 K, 2888.2 kPa, Liquid | 906.06
353.13 K, 2908.5 kPa, Liquid | 909.29
353.13 K, 2928.4 kPa, Liquid | 912.84
353.13 K, 2948.2 kPa, Liquid | 915.77
353.13 K, 2969.5 kPa, Liquid | 918.7
353.13 K, 2989.9 kPa, Liquid | 921.51
353.13 K, 3009.6 kPa, Liquid | 924.14
353.13 K, 3030.5 kPa, Liquid | 926.96
353.13 K, 3051.7 kPa, Liquid | 929.82
353.13 K, 3072.6 kPa, Liquid | 932.36
353.13 K, 3094.1 kPa, Liquid | 935.03
353.13 K, 3116.1 kPa, Liquid | 937.73
353.13 K, 3136.7 kPa, Liquid | 940.03
353.13 K, 3159.1 kPa, Liquid | 942.35
353.13 K, 3182.1 kPa, Liquid | 944.69
353.13 K, 3205.5 kPa, Liquid | 946.93
353.13 K, 3225.2 kPa, Liquid | 948.79
353.13 K, 3246.7 kPa, Liquid | 950.79
353.13 K, 3265.8 kPa, Liquid | 952.67
353.13 K, 3286.3 kPa, Liquid | 954.54
353.13 K, 3309.6 kPa, Liquid | 956.7
353.13 K, 3330.5 kPa, Liquid | 958.57
353.13 K, 3353 kPa, Liquid | 960.43
353.13 K, 3369.2 kPa, Liquid | 961.77
353.13 K, 3392.7 kPa, Liquid | 963.71
353.13 K, 3399 kPa, Liquid | 964.17
353.13 K, 3429.5 kPa, Liquid | 966.86
353.13 K, 3457.9 kPa, Liquid | 969.07
353.13 K, 3487.3 kPa, Liquid | 971.26
353.13 K, 3521.2 kPa, Liquid | 973.81
353.13 K, 3546.8 kPa, Liquid | 975.65
353.13 K, 3574.3 kPa, Liquid | 977.54
353.13 K, 3599.5 kPa, Liquid | 979.42
353.13 K, 3626.9 kPa, Liquid | 981.32
353.13 K, 3653.9 kPa, Liquid | 982.94
353.13 K, 3680.4 kPa, Liquid | 984.8
353.13 K, 3736 kPa, Liquid | 988.5
353.13 K, 3763.9 kPa, Liquid | 990.13
353.13 K, 3788.8 kPa, Liquid | 991.7
353.13 K, 3815.8 kPa, Liquid | 993.28
353.13 K, 3840.7 kPa, Liquid | 994.81
353.13 K, 3865.5 kPa, Liquid | 996.26
353.13 K, 3891.9 kPa, Liquid | 997.74
353.13 K, 3918.8 kPa, Liquid | 999.3
353.13 K, 3943.7 kPa, Liquid | 1000.71
353.13 K, 3971.8 kPa, Liquid | 1002.02
353.13 K, 3985.4 kPa, Liquid | 1002.96
353.13 K, 4027.5 kPa, Liquid | 1005.16
353.13 K, 4066.7 kPa, Liquid | 1007.14
353.13 K, 4105.8 kPa, Liquid | 1009.21
353.13 K, 4146.8 kPa, Liquid | 1011.34
353.13 K, 4185.8 kPa, Liquid | 1013.28
353.13 K, 4216 kPa, Liquid | 1014.76
353.13 K, 4257.8 kPa, Liquid | 1016.64
353.13 K, 4298.4 kPa, Liquid | 1018.66
353.13 K, 4335.1 kPa, Liquid | 1020.3
353.13 K, 4374.3 kPa, Liquid | 1022.01
353.13 K, 4415.3 kPa, Liquid | 1023.76
353.13 K, 4454.8 kPa, Liquid | 1025.55
353.13 K, 4494.4 kPa, Liquid | 1027.22
353.13 K, 4534 kPa, Liquid | 1028.89
353.13 K, 4574.1 kPa, Liquid | 1030.62
353.13 K, 4611.4 kPa, Liquid | 1032.18
353.13 K, 4650.8 kPa, Liquid | 1033.77
353.13 K, 4692 kPa, Liquid | 1035.33
353.13 K, 4731.2 kPa, Liquid | 1036.88
353.13 K, 4772.4 kPa, Liquid | 1038.52
353.13 K, 4813.3 kPa, Liquid | 1040.05
353.13 K, 4854.9 kPa, Liquid | 1041.63
353.13 K, 4892.5 kPa, Liquid | 1043.01
353.13 K, 4933.3 kPa, Liquid | 1044.53
353.13 K, 4970.7 kPa, Liquid | 1045.82
353.13 K, 5012.1 kPa, Liquid | 1047.29
353.13 K, 5052.5 kPa, Liquid | 1048.76
353.13 K, 5091.9 kPa, Liquid | 1050.11
353.13 K, 5130 kPa, Liquid | 1051.53
353.13 K, 5169.1 kPa, Liquid | 1052.89
353.13 K, 5208.1 kPa, Liquid | 1054.11
353.13 K, 5247 kPa, Liquid | 1055.36
353.13 K, 5287.6 kPa, Liquid | 1056.62
353.13 K, 5325.3 kPa, Liquid | 1057.82
353.13 K, 5365.1 kPa, Liquid | 1059.19
353.13 K, 5403.1 kPa, Liquid | 1060.48
353.13 K, 5442.6 kPa, Liquid | 1061.62
353.13 K, 5480.8 kPa, Liquid | 1062.93
353.13 K, 5559.8 kPa, Liquid | 1065.32
353.13 K, 5597.5 kPa, Liquid | 1066.51
353.13 K, 5634.9 kPa, Liquid | 1067.6
353.13 K, 5673 kPa, Liquid | 1068.78
353.13 K, 5711.7 kPa, Liquid | 1069.91
353.13 K, 5751 kPa, Liquid | 1071.01
353.13 K, 5788.5 kPa, Liquid | 1072.12
353.13 K, 5826.7 kPa, Liquid | 1073.17
353.13 K, 5865.4 kPa, Liquid | 1074.15
353.13 K, 5902.7 kPa, Liquid | 1075.33
353.13 K, 5941.8 kPa, Liquid | 1076.43
353.13 K, 5981.5 kPa, Liquid | 1077.54
353.13 K, 6019.6 kPa, Liquid | 1078.56
353.13 K, 6060.4 kPa, Liquid | 1079.62
353.13 K, 6101 kPa, Liquid | 1080.65
353.13 K, 6140.3 kPa, Liquid | 1081.81
353.13 K, 6177.9 kPa, Liquid | 1082.78
353.13 K, 6216.7 kPa, Liquid | 1083.8
